US20110230504A1, “ALLEVIATING DISORDERS WITH COMBINING AGENTS THAT INCREASE EPOXYGENATED FATTY ACIDS AND AGENTS THAT INCREASE cAMP” (The Regents Of The University Of California Office Of …, priority 2008, published 2011)

Key:
[1] = target: peripheral benzodiazepine receptor (PBR, TSPO) (Rattus norvegicus, UniProt P16257); assay: Displacement of [3H] PK11195 from TSPO (rat heart mitochondria, CEREP); settings: methyl ester forms
[2] = Metabolic stability and pharmacokinetics of sEH inhibitors (statements)
[3] = target: T1, sEH (Homo sapiens, UniProt P34913); assay: Testing as sEH inhibitors (assay not specified); type: biochemical
T1 sequence (P34913 1-555): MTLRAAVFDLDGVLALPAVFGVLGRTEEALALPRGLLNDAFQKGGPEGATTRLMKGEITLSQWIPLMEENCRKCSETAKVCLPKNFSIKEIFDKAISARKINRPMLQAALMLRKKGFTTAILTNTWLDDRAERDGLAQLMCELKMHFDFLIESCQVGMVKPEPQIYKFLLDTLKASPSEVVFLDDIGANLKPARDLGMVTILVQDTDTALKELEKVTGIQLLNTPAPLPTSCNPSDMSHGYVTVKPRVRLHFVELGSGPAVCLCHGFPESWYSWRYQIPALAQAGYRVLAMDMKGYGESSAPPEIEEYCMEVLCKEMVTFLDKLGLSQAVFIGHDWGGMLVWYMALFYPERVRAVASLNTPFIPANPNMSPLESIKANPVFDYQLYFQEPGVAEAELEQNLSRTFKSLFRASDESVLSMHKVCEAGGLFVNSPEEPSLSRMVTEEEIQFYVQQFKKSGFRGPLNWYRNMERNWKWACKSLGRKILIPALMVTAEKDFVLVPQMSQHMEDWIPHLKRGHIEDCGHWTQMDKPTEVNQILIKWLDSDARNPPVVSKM
Description: Any of a number of standard assays for determining epoxide hydrolase activity can be used to determine inhibition of sEH. For example, suitable assays are described in Gill, et al., Anal Biochem 131:273-282 (1983); and Borhan, et al., Analytical Biochemistry 231:188-200 (1995)). Suitable in vitro assays are described in Zeldin et al., J. Biol. Chem. 268:6402-6407 (1993). Suitable in vivo assays are described in Zeldin et al., Arch Biochem Biophys 330:87-96 (1996). Assays for epoxide hydrolase using both putative natural substrates and surrogate substrates have been reviewed (see, Hammock, et al. In: Methods in Enzymology, Volume III, Steroids and Isoprenoids, Part B, (Law, J. H. and H. C. Rilling, eds. 1985), Academic Press, Orlando, Fla., pp. 303-311 and Wixtrom et al., In: Biochemical Pharmacology and Toxicology, Vol. 1: Methodological Aspects of Drug Metabolizing Enzymes, (Zakim, D. and D. A. Vessey, eds. 1985), John Wiley & Sons, Inc., New York, pp. 1-93. Several spectral based assays exist based on the reactivity or tendency of the resulting diol product to hydrogen bond (see, e.g., Wixtrom, supra, and Hammock. Anal. Biochem. 174:291-299 (1985) and Dietze, et al. Anal. Biochem. 216:176-187 (1994)).

[4] = tested on: rats; assay: Intraplantar carrageenan inflammatory pain model, intrathecal sEHI; type: in vivo, rat; settings: intrathecal 0.1-3 μg
Description: The study was approved by UC Davis Animal Care and Use Committee. Male Sprague-Dawley rats weighing 250-350 g were obtained from Charles River Inc. Two models of inflammatory pain and one model of diabetic neuropathic pain were used to test the effects of sEHI. The main inflammatory pain model used involved intraplantar LPS (10 μg/animal) administration as described previously (Inceoglu B et al., Life Sci 79:2311-2319 (2006)). Briefly, following baseline thermal withdrawal latency and mechanical withdrawal threshold determination LPS (in saline) was administered into one hind paw and nociceptive thresholds were monitored over time. The other inflammatory pain model involved intraplantar carrageenan (1% in saline, 50 μl) administration and was only used when sEHI was administered into the spinal cord. Intrathecal catheters were implanted according to Yaksh and Rudy (Yaksh T L and Rudy T A, Physiol Behav 17(6):1031-1036 (1976)). Following baseline nociceptive response measurements carrageenan was administered into one hind paw and responses were monitored over time and after intraspinal sEHI administration. […] In experiments in which EETs, sEHI and cAMP analogue was administered intraspinally animals were maintained under deep anesthesia and therefore nociceptive thresholds were not determined.

[5] = tested on: StARD1 mRNA; assay: StARD1 mRNA in LPS inflamed rats, qRT-PCR; type: in vivo, rat
Description: (§1) A purelink Micro to Midi total RNA purification kit (Invitrogen, CA) was used to extract RNA from whole spinal cord, adrenal gland and testis. For brain, the remaining caudal two thirds were sliced into two hemispheres from the midline and a coronal slice of 2 mm in thickness was taken for analysis. The RNA samples were quantified by spectrophotometry and converted to cDNA using a high capacity cDNA reverse transcription kit from Applied Biosystems (CA, USA). Taq-man probes for COX2 (Rn00568225_ml) StARD1 (Rn00580695_ml), ICER(Rn00569145_ml), Sst (Rn00561967_ml), sEH(Rn00576023_ml) genes were used according to manufacturer's instructions to quantify relative gene expression (Applied Biosystems). Experiments were performed in triplicate with GAPDH (glyceraldehyde 3-phosphate dehydrogenase message) serving as the endogenous control. Mean fold expression values from corresponding untreated animal tissues were used as calibrators.

[6] = tested on: StARD1 mRNA; assay: StARD1 mRNA 30 min after intraspinal 8-Br cAMP, EETs, AEPU in non-inflamed rats; type: in vivo, rat; settings: 8-Br cAMP 100 μg, EETs 5 μg, AEPU 1 μg
Description: To investigate the cooperation between cAMP and EETs in the spinal cord, a membrane permeable cAMP analogue, 8-Br cAMP (100 μg), was administered into the spinal cord by lumbar puncture (between L4-L5) and rapid (30 min.) expression of StARD1 mRNA in the spinal cord and the brain was quantified by qRT-PCR. In these experiments animals were maintained under deep anesthesia.

[7] = tested on: plasma oxylipins (EETs, DHETs, PGE2); assay: Plasma oxylipin analysis in LPS treated rats; type: in vivo, rat; settings: LPS treated rats, two hours
Description: Plasma was collected by cardiac puncture under deep anesthesia. Rats were anesthetized by isoflurane overdose and decapitated. Whole brains were immediately excised and flash frozen. […] Dorsal roots were excluded.

[8] = tested on: circulating testosterone and progesterone; assay: Circulating steroid hormone levels by RIA; type: in vivo, rat; settings: rats
[9] = tested on: COX2 mRNA; assay: Spinal COX2 mRNA after intraplantar LPS, qRT-PCR; type: in vivo, rat; settings: rats
Description: as §1

[10] = tested on: rats; assay: Thermal withdrawal latency, intraplantar LPS inflammatory pain model and non-inflamed controls; type: in vivo, rat; settings: for thermal withdrawal latency in the absence of inflammation: control rats, i.pl. saline
[11] = Brain, blood and plasma inhibitor levels, LC-ESI-MS/MS; settings: AEPU dermal, TPAU systemic administration
[12] = tested on: rats; assay: Open field / motor activity; type: in vivo, rat; settings: rolipram 0.1 and TPAU 10 mg/kg
[13] = target: T2, mouse sEH (Mus musculus, UniProt P34914); assay: biochemical
T2 sequence (P34914 1-554): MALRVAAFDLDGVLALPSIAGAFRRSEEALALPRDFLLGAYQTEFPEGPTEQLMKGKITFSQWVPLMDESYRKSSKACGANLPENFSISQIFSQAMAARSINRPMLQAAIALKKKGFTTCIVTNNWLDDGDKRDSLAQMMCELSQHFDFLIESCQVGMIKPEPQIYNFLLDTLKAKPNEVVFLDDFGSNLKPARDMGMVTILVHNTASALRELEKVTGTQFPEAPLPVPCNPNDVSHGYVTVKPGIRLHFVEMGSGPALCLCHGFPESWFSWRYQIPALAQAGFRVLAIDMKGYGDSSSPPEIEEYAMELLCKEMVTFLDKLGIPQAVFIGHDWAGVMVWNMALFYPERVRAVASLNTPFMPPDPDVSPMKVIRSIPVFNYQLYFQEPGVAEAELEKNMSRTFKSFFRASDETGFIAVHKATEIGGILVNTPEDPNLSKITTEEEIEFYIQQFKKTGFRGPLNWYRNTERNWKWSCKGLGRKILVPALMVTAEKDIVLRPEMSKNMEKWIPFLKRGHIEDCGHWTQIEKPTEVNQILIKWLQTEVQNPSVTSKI

[14] = tested on: StARD1 mRNA; assay: StARD1 expression after rolipram and TPAU, qRT-PCR; type: in vivo, rat; settings: rats
Description: Briefly, RNA from whole spinal cord, brain and adrenal gland samples were extracted using a purelink Micro to Midi total RNA purification kit (Invitrogen, CA). The RNA samples were quantified by spectrophotometry and converted to cDNA using a high capacity cDNA reverse transcription kit from Applied Biosystems (CA, USA). Taq-man probe for StARD1 (Rn00580695_ml) was used according to manufacturer's instructions to quantify relative gene expression (Applied Biosystems CA, USA). Experiments were performed in triplicate with glyceraldehyde 3-phosphate dehydrogenase gene serving as the endogenous control. Mean fold expression values from corresponding vehicle treated animal tissues were used as calibrators.
These findings encouraged us to investigate the expression of StARD1 message as a marker of steroidogenic activity. […] Adrenal StARD1 from the same animals was also monitored as a marker of peripheral steroidogenesis.

With CCCCC/C=C\C/C=C\CC1OC1C/C=C\CCCC(=O)O (stereo not drawn) [8,9-EET] as the compound, how does the “competition with radioligand [3H] PK11195 at TSPO” value [1] read?
Its value is “did not compete”.

Which metabolic stability [2] does the source give for CCCCCCCCCCCCNC(=O)NC12CC3CC(CC(C3)C1)C2 [ADU, N-Adamantyl-N′-dodecyl urea] here?
Its metabolic stability is “metabolically stable”.

And the “activity as inhibitor of sEH” value [3]?
The value was “particularly high activity”.

Which “carrageenan induced mechanical allodynia” value [4] does the source give for CCOCCOCCOCCCCCNC(=O)NC12CC3CC(CC(C3)C1)C2 [AEPU, Adamantan-1-yl-3-{5-[2-(2-ethoxyethoxy)ethoxy]pentyl}urea] here?
The value was “dose dependent decrease”.

What about the “carrageenan induced thermal hyperalgesia” value [4] of the same compound?
Its value is “dose dependent decrease”.

What about the “adrenal gland StARD1 mRNA induced by LPS” value [5] of the same compound?
Its value is “reduced”.

What about the “brain StARD1 mRNA expression” value [5] of the same compound?
Its value is “two-fold increase”.

What about the “spinal StARD1 mRNA expression” value [5] of the same compound?
Its value is “sustained”.

And the “testis StARD1 mRNA induced by LPS” value [5]?
The value was “not in testis”.

What about the “spinal StARD1 expression” value [6] of the same compound?
Its value is “without effect”.

And the “plasma DHET level” value [7]?
Its value is “decreased”.

And the “plasma PGE2 level” value [7]?
Its value is “decreased”.

And the metabolism [2]?
The metabolism was “metabolized rapidly”.

What about the “circulating / plasma progesterone level” value [8] of the same compound?
The value was “decreased”.

What about the plasma testosterone level ([8]; with or without LPS) of the same compound?
The plasma testosterone level was “did not alter”.

And the “spinal COX2 message after LPS” value [9]?
Its value is “significantly suppressed”.

What about the “thermal withdrawal latency in the absence of inflammation” value [10] of the same compound?
The value was “no effect”.

And the “LPS elicited thermal hyperalgesia (thermal withdrawal latency)” value ([10]; rats, i.pl. LPS 10 μg)?
Its value is “briefly increased”.

And the “penetration into the brain” value [11]?
Its value is “efficiently penetrated into the brain”.

Which “open field activity / motor function” value [12] does the source give for CC(=O)N1CCC(NC(=O)Nc2ccc(OC(F)(F)F)cc2)CC1 [TPAU] here?
Its value is “did not affect motor function”.

And the metabolic stability [2]?
The metabolic stability was “metabolically stable”.

What about the “oral availability and pharmacokinetics” value [2] of the same compound?
The value was “excellent oral availability and pharmacokinetics”.

And the IC50 [13]?
Its IC50 is 97 nM.

What about the “thermal withdrawal latency in the absence of inflammation” value [10] of the same compound?
The value was “no effect”.

What about the “loss of motor activity” value ([10]; rats) of the same compound?
The value was “No loss of motor activity”.

What about the “decrease in adrenal gland StARD1 expression” value [14] of the same compound?
The value was 30%.

What about the “penetration into the brain” value [11] of the same compound?
The value was “efficiently penetrated into the brain”.
